Experiment [1] concerns actively induced EAE. The experiment can be described thus: Actively induced EAE (MBP/CFA immunization), clinical score. Format: in vivo, Lewis rats. The note with it: for suppression of EAE via IV tolerization: intravenously prior to immunization for actively induced disease (FIG. 7).
The subject of experiment [2] is short term T-cell lines from peripheral blood mononuclear cells. Put plainly: Proliferation assay of short term T-cell lines for reactivity to MBP, PLP and overlapping MBP peptides. Format: cell-based, human. Conditions: for mean frequency of T-cell lines selectively reactive to the peptide, MS vs controls (FIG. 1): MS patients compared with combined controls. As to the method:
A rapid T-cell cloning technique was used to examine whether there were immunodominant epitopes on human MBP reactive with Class II MHC phenotypes and the frequency of such reactivity. A total of 15,824 short term T-cell lines were generated from 51 human subjects by culturing peripheral blood mononuclear cells ([…]) with purified MBP (100 μg) followed 3 days later, and then every 3-4 days, by the addition of interleukin-2 (IL-2; from ABI, Columbia, Md.) and 2 units recombinant interleukin-4 (IL-4; Genzyme, Boston, Mass.). On Day 13 of culture, an aliquot from each line was tested for reactivity to MBP using the following proliferation assay: T-cell clones (1×10^5 cells/well) were plated in triplicate and cocultured with appropriate stimuli (i.e. 100 μg whole MBP or 5% IL-2) for 72 hours at 37° C., 90% humidity, 5% CO2, in 96 well flat bottomed microtiter plates (Costar). The cells were pulsed with 2 μCi [^3 H]TdR (2 Ci/mmole, New England Nuclear, Boston, Mass.) for the last 18 hours of culture. APCs were prepared by pulsing human Epstein-Barrvirus transformed human B-cells (the virus being commercially available from ATCC) or L-cells which are mouse cells transfected with human DR2 (L-cells are commercially available from ATCC under accession No. ATCC-CCL1 and can be transfected according to the method of Wilkinson, D. et al, J. Exp. Med., 1988, 167:1442-1458 using-DNA encoding DR2 as per Wu, S. et al J. Immunol., 1987, 138:2953). B-cells or L-cells were used at 1×10^6 cells/well in complete media either in the presence or absence of 40 pM MBP or phospholipid protein (PLP) for 2 hours at 37° C., washing twice with 4° C. […]
Subjects with other central nervous system diseases had the following diagnoses: 1-3 weeks after either cerebrovascular accident (n=4), brain trauma with CNS hemorrhage (n=4), or metastatic brain tumor (n=2). […] In addition, the frequency of MBP and PLP-reactive lines was calculated separately for each subject by dividing the number of MBP-reactive lines by the total number of lines generated and the mean values +/- SEM are given. […]

With “131-150: Control guinea pig MBP peptide 131-150 (DYKSKGFKGAHDAQGTLSKI; UniProt P25188 131-150, looked up, fragment)”, in experiment [1], the “suppression of EAE via IV tolerization” value is listed as “did not suppress”. Besides, the “suppression of EAE via oral tolerization” value in experiment [1] (orally prior to immunization for actively induced disease (FIG. 7)) is given as “did not suppress”.

On to “FKGVDAQGTLSKIFKLGGRD [143-168, human MBP amino acid residues 143-168]”, for which, in experiment [2], the “mean frequency of T-cell lines selectively reactive to the peptide, MS vs controls (FIG. 1)” value was “both MS and control subjects showed high frequencies”.

Regarding HHPARTAHYGSLPQKSEGRT [61-82], in experiment [2], the “mean frequency of T-cell lines selectively reactive to the peptide, MS vs controls (FIG. 1)” value is recorded as “Significant but less striking increases in reactivity”.

histone yielded a mean maximal score in experiment [1] (IV injection before immunization with MBP/CFA, clinical scale 0-5) of 3.0±0.3.

B1: proteolipid protein (protein, UniProt P60201 2-277, looked up)
Myelin proteolipid protein: GLLECCARCLVGAPFASLVATGLCFFGVALFCGCGHEALTGTEKLIETYFSKNYQDYEYLINVIHAFQYVIYGTASFFFLYGALLLAEGFYTTGAVRQIFGDYKTTICGKGLSATVTGGQKGRGSRGQHQAHSLERVCHCLGKWLGHPDKFVGITYALTVVWLLVFACSAVPVYIYFNTWTTCQSIAFPSKTSASIGSLCADARMYGVLPWNAFPGKVCGSNLLSICKTAEFQMTFHLFIAAFVGAAATLVSLLTFMIAATYNFAVLKLMGRGTKF
With B1, the “MEAN FREQUENCY OF Ag REACTIVE LINES” value in experiment [2] (other neurological disease (n = 10), mean +/- SEM) is 0.90 ± 0.62.

B2: myelin basic protein (protein, UniProt P25188 1-167, looked up)
Myelin basic protein: ASQKRPSQRHGSKYLATASTMDHARHGFLPRHRDTGILDSIGRFFGSDRAAPKRGSGKDSHHAARTTHYGSLPQKSQRSQDENPVVHFFKNIVTPRTPPPSQGKGRGLSLSRFSWGAEGQKPGFGYGGRADYKSKGFKGAHDAQGTLSKIFKLGGRDSRSGSPMARR
Regarding B2, the “suppression of EAE via IV tolerization” value in experiment [1] is given as “suppression of EAE”.

Values taken from US6077509A, “Peptide fragments of myelin basic protein” (Autoimmune, Inc., priority 1995, dated 2000).
